The results in this text go back to ChEMBL document CHEMBL1201862, “PubChem BioAssay data set” (2004).

Calls of active or inactive are those of the source.

The target in test [1] is T1, Interleukin-8 (Homo sapiens, UniProt P10145).
T1 sequence (P10145 whole entry): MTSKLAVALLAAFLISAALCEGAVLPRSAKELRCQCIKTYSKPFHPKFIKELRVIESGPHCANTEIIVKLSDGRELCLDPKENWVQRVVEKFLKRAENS
Briefly: Dose Response confirmation of uHTS small molecule hits for cystic fibrosis induced NFkb Inhibitors in a PAF-induced IL8 counterscreen. Type of test: functional. The note with it: read-out: IC50_Mean.

For test [2], the target named is T1, Interleukin-8. The test can be described thus: Dose Response confirmation of uHTS small molecule hits for cystic fibrosis induced NFkb Inhibitors in a TNFa-induced IL8 counterscreen. Type of test: functional. The note with it: read-out: IC50_Mean.
Test [3] deals with Diacylglycerol lipase-beta (Mus musculus, UniProt Q91WC9). Briefly: Late stage assay provider results from the probe development effort to identify inhibitors of diacylglycerol lipase, beta (DAGLb): fluorescence-based dose-response biochemical gel-based competitive Activity-Based Protein Profiling (ABPP) inhibition of DAGLb in vitro. It counts as functional.
Test [4] addresses T2, Rac GTPase-activating protein 1 (Homo sapiens, UniProt Q9H0H5).
T2 sequence (Q9H0H5 whole entry): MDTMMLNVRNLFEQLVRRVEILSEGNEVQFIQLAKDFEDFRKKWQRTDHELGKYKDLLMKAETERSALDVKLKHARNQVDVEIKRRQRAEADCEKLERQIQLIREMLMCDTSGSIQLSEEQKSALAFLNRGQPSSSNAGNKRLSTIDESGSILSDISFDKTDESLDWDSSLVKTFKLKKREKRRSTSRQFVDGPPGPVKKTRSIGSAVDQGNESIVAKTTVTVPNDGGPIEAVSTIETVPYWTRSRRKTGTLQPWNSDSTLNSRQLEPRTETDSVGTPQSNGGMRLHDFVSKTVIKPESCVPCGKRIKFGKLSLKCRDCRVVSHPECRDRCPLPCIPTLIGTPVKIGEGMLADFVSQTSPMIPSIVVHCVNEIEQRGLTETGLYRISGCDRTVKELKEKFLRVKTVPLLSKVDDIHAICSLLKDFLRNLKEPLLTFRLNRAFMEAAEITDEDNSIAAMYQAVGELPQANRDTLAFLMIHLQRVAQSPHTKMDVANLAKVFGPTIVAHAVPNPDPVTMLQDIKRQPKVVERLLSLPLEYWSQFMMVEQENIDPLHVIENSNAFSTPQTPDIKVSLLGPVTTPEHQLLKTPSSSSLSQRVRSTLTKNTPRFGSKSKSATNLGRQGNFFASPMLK
Briefly: blockers of MgcRacGAP-driven Rac1 GTP hydrolysis – biochemical, ADP Hunter fluorescence, primary and confirmatory, confirmation (AID 624330). Type of test: functional.

The target in test [5] is 72 kDa type IV collagenase (Homo sapiens, UniProt P08253). Briefly: Dose Response validation of uHTS RPN11 inhibitor hits using a MMP-2 Fluorescence assay. It counts as functional.
The target in test [6] is DNA (cytosine-5)-methyltransferase 1 (Homo sapiens, UniProt P26358). Briefly: inhibition of DNA methylation by DNMT1 – biochemical, fluorescent molecular beacon, confirmation (AID 602386). Type of test: functional.
Test [7] deals with T3, Histone-lysine N-methyltransferase NSD2 (Homo sapiens, UniProt O96028).
T3 sequence (O96028 whole entry): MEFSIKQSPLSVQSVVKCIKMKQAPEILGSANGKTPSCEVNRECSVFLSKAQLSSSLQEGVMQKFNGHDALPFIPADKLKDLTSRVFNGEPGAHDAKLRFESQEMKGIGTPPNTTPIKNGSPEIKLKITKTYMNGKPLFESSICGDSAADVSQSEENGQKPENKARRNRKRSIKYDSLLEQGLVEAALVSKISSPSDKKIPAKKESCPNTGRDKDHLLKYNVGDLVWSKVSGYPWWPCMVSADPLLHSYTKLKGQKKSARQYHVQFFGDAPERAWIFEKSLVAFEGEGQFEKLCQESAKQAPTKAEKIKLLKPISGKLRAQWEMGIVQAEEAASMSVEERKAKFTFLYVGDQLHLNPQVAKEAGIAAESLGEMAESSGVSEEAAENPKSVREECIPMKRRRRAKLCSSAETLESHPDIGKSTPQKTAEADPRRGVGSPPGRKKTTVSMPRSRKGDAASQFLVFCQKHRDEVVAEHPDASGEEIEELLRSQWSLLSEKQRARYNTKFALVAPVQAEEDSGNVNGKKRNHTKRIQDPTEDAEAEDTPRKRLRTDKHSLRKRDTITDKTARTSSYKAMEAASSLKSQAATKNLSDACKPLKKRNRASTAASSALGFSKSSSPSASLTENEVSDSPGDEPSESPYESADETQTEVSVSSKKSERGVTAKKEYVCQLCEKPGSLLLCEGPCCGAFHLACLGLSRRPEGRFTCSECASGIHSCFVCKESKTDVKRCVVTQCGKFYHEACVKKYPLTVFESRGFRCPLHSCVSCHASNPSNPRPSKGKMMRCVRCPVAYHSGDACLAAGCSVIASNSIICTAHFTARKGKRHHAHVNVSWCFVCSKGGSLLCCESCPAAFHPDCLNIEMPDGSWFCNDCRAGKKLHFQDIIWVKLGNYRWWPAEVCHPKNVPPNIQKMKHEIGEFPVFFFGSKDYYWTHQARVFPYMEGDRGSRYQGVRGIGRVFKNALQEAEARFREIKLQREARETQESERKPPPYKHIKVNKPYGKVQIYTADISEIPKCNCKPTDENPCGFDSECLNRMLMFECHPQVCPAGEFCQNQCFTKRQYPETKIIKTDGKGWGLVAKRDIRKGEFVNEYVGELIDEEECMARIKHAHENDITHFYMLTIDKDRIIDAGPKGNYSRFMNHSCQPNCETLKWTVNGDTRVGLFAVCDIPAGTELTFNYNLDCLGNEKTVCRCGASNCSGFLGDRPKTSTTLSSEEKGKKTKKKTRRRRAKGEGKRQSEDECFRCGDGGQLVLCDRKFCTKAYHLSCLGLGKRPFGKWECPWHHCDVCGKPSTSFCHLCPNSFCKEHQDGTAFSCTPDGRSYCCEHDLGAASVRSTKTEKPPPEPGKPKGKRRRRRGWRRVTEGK
It counts as biochemical.

In test [8] the target is 26S proteasome non-ATPase regulatory subunit 14 (Homo sapiens, UniProt O00487). The test can be described thus: inhibition of proteasome subunit RPN11 – biochemical, fluorescence polarization, uHTS hits, confirmation (AID 602368). It counts as functional.
The target in test [9] is Prothrombin (Bos taurus, UniProt P00735). Briefly: thrombin protease inhibitors – biochemical, fluorescence polarization, uHTS hits, dose response (AID 602369). It counts as functional. For orientation: In fluorescence polarisation assays a small probe gives low polarisation when free and higher when bound to something large.
The target of test [10] is T4, Short transient receptor potential channel 4 (Mus musculus, UniProt Q9QUQ5).
T4 sequence (Q9QUQ5 whole entry): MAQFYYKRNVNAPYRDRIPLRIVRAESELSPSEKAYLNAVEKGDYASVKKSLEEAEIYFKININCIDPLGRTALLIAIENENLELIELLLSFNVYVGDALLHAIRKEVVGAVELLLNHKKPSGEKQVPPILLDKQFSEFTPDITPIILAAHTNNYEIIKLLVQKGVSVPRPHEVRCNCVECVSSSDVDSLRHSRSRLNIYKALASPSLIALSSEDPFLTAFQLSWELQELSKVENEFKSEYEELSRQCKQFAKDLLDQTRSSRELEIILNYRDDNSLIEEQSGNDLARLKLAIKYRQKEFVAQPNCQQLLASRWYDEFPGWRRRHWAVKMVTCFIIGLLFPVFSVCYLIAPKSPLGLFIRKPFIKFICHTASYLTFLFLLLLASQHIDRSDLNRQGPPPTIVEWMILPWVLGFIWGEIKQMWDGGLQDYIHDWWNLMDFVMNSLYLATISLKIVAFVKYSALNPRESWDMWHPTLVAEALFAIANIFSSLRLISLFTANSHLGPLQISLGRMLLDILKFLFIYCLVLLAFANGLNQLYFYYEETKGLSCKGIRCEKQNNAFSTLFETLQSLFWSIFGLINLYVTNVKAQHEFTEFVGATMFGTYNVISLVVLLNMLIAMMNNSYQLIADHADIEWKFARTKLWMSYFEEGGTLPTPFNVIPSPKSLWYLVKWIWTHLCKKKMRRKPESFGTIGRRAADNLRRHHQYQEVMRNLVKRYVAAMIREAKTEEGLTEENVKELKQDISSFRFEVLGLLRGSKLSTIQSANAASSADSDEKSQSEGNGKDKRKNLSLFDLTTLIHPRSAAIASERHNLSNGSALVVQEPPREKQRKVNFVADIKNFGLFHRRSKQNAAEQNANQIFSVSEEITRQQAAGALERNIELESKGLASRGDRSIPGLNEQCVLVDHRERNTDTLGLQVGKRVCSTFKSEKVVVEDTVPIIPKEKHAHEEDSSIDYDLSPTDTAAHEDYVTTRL
The test can be described thus: block of DAMGO-driven TRPC4 calcium entry – cell-based, HEK293 TRPC4/mu-opioid, Fluo-4 calcium, dose response (AID 434942).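 Note: potency of inhibitors blocking the TRPC4 calcium response.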 Type of test: functional.

Test [11] addresses T5, ATP-dependent translocase ABCB1 (Homo sapiens, UniProt P08183). The test can be described thus: P-gp JC-1 efflux blockade concentration-response – Jurkat-DNR cells, flow cytometry, set 2, dose response (AID 504569).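 Note: potency of pump inhibitors that raise cellular JC-1 green fluorescence up to the nicardipine level.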 As to conditions: read-out: EC50_MICROM_. It counts as functional. (In general: Flow cytometry measures light scatter and fluorescence of single cells or particles in a stream.)

Test [12] deals with T5, ATP-dependent translocase ABCB1. Briefly: inhibition of BCRP-mediated JC-1 efflux – Ig-MXP3 cells, flow cytometry, set 2, dose response (AID 504566).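 Note: flow cytometry median green fluorescence of retained JC-1 dye; potency of efflux pump inhibition measured as rising substrate retention.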 It counts as functional. The note with it: read-out: EC50_MICROM_.
The target in test [13] is T6, Apoptotic protease-activating factor 1 (Homo sapiens, UniProt O14727).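 Note: caspase-3 cleavage of fluorogenic Rh110 DEVD substrate downstream of apoptosome activation.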
T6 sequence (O14727 whole entry): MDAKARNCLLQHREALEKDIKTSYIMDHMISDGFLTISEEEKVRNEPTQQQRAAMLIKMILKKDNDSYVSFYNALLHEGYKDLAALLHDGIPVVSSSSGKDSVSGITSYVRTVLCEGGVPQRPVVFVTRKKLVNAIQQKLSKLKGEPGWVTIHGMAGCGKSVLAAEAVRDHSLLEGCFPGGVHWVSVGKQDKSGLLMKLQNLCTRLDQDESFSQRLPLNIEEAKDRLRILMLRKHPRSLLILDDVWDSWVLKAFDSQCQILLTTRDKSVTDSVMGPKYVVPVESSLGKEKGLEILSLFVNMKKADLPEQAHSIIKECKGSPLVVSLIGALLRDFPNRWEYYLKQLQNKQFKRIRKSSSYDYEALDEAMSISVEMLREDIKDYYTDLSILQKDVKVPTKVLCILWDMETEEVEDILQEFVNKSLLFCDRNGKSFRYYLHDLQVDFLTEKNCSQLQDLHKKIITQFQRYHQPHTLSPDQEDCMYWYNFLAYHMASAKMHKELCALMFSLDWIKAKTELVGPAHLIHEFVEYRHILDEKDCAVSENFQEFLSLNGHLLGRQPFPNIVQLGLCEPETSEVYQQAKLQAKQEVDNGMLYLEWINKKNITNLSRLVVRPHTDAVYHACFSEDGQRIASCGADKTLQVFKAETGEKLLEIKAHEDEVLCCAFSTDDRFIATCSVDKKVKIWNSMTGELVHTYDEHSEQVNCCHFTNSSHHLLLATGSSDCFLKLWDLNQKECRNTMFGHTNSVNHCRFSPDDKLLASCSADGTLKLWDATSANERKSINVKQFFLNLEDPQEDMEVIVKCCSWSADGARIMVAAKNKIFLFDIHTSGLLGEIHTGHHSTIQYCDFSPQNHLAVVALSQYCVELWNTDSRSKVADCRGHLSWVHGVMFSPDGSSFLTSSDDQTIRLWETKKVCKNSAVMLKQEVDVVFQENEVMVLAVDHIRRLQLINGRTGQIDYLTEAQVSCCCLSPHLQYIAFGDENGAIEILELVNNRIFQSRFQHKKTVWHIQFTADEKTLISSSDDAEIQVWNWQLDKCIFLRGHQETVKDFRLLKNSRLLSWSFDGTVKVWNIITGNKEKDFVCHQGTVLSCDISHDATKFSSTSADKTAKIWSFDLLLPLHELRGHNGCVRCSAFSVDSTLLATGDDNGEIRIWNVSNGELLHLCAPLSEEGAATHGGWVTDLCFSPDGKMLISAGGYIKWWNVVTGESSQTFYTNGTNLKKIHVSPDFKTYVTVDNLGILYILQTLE
The test can be described thus: SAR analysis of small molecule Activators of Apaf-1 in a Fluorescent assay. Type of test: functional. As to conditions: read-out: EC50_Mean.

Chain of 72 kDa type IV collagenase (P08253 whole entry): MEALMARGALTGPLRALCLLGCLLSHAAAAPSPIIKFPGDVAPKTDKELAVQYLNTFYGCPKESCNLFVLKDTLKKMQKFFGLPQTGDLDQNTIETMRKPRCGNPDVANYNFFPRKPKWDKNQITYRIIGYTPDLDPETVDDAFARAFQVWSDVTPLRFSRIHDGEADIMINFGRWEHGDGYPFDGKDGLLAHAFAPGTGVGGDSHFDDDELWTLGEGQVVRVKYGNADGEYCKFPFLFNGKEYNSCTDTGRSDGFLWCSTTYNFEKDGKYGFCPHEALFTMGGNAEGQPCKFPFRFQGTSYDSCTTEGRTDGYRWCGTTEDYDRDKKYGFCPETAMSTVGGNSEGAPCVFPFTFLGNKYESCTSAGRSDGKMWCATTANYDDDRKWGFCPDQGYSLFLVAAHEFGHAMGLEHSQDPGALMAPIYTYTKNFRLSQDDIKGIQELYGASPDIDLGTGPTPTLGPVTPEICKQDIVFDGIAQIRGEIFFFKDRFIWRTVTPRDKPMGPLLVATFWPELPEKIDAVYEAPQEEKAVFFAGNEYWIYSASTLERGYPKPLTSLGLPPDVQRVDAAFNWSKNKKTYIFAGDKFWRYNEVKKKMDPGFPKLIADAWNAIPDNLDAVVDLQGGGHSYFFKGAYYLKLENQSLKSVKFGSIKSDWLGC
T5 sequence (P08183 whole entry): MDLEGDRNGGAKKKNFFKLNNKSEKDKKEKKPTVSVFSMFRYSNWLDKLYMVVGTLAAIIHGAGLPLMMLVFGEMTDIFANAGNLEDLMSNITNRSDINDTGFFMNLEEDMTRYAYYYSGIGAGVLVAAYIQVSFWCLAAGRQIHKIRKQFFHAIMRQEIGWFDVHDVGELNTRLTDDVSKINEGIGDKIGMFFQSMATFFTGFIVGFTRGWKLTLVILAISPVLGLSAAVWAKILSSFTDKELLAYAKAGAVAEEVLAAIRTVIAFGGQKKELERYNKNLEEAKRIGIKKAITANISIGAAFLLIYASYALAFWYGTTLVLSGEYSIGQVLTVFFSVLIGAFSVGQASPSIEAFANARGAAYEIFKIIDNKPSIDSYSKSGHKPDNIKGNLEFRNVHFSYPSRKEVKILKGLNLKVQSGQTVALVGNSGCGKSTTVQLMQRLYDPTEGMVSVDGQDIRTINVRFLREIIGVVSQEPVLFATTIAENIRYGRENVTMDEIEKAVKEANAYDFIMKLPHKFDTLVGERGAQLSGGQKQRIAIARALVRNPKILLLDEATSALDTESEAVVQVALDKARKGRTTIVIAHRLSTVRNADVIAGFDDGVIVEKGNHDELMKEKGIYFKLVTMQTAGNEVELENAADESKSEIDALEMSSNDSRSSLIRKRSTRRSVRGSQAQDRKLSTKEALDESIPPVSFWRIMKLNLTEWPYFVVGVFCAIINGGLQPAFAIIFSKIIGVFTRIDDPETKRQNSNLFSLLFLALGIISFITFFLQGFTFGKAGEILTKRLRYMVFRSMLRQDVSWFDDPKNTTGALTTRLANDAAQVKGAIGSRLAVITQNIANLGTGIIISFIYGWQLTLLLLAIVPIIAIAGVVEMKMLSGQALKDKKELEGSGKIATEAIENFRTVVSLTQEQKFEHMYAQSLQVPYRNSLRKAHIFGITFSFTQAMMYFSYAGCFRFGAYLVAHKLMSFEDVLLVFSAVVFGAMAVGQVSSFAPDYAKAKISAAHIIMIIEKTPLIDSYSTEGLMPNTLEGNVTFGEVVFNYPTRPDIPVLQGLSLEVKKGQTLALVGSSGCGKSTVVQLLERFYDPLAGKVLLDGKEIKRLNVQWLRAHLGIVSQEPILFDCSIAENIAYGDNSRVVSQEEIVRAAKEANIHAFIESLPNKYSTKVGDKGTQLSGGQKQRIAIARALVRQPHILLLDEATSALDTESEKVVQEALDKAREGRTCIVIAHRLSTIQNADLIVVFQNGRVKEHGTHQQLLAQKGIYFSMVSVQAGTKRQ
Chain of 26S proteasome non-ATPase regulatory subunit 14 (O00487 whole entry): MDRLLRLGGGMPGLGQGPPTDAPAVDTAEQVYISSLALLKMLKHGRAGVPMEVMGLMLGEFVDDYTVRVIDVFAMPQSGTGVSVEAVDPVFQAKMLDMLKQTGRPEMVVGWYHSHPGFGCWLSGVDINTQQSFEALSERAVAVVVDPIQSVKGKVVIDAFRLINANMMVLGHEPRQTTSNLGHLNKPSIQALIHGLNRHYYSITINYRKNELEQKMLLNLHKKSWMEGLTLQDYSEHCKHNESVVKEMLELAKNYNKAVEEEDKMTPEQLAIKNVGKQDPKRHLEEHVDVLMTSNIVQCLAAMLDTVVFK
Chain of Diacylglycerol lipase-beta (Q91WC9 whole entry): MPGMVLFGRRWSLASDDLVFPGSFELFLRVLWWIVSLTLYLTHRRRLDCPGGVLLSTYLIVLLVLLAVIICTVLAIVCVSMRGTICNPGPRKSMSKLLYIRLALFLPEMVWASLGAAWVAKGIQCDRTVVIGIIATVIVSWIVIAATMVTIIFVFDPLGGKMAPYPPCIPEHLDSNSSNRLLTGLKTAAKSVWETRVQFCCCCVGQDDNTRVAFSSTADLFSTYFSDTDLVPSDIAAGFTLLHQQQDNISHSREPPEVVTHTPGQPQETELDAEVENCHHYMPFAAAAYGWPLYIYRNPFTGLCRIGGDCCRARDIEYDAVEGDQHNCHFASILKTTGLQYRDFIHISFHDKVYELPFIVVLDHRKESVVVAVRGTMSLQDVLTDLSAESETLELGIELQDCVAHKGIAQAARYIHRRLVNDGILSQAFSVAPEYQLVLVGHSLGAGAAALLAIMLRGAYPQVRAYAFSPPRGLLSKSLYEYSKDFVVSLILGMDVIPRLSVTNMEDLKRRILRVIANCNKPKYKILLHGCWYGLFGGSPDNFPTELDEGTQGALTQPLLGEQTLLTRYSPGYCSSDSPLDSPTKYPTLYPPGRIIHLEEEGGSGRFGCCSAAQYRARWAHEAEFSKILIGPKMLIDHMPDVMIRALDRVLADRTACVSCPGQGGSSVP
Chain of DNA (cytosine-5)-methyltransferase 1 (P26358 whole entry): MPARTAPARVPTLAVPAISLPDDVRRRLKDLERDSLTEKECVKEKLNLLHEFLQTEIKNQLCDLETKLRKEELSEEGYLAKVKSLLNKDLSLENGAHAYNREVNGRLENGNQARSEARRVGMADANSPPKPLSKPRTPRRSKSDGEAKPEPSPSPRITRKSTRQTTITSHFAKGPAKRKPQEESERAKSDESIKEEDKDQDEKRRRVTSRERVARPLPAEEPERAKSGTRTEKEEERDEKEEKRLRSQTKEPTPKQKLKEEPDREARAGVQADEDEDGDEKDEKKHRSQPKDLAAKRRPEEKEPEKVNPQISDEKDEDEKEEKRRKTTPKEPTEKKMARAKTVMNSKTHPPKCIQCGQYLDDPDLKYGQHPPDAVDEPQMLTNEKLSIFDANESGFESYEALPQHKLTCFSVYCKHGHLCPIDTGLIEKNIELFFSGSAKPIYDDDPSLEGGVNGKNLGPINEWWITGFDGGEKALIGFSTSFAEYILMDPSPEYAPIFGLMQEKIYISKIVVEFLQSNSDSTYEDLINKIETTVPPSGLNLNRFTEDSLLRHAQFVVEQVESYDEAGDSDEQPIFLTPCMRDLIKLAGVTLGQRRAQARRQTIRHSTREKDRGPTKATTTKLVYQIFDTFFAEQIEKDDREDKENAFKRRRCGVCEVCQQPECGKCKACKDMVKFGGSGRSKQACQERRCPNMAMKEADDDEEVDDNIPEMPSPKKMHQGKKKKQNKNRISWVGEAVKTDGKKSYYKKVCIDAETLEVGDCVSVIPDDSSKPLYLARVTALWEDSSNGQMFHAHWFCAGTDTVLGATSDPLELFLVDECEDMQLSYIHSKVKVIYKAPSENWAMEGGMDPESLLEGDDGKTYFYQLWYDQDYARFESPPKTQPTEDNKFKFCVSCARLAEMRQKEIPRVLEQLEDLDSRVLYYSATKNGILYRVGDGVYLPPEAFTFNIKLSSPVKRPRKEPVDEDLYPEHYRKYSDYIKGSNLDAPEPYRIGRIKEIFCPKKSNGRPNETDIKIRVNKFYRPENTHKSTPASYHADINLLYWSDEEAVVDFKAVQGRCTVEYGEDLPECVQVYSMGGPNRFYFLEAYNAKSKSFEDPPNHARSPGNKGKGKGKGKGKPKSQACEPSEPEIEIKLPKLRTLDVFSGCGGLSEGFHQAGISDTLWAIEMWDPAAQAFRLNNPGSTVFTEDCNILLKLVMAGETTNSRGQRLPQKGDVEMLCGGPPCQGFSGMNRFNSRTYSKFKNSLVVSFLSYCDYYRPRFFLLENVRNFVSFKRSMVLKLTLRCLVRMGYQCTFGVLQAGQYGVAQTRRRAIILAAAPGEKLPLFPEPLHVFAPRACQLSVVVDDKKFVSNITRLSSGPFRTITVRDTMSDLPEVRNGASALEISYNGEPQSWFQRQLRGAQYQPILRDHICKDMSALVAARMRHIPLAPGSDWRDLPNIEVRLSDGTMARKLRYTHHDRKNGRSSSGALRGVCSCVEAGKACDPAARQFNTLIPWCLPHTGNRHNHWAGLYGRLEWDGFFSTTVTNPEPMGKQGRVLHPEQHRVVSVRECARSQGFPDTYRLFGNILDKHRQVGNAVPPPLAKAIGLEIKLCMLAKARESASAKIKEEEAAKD

Consider `c1cc(-c2cnc3cccnn23)c2cccnc2c1`, for which the IC50 in [1] is 14.4 µM (inactive); in test [2], 56.5 µM (inactive).
As for `O=C(N1CCCCC1Cc1ccccc1)n1cc(-c2ccc(OC(F)(F)F)cc2)nn1` (stereo unspecified), in test [3], the IC50 is 0.052 µM (active).
As usually defined, the AC50 is the concentration giving half of the maximal activity seen. Take `CC1=NN(c2ccccc2)C(=O)C1/C=C1\NC(=S)NC1=O` (stereo unspecified): the IC50 is 238 µM (active) in test [4]; > 100 µM (inactive) in [5]; 8.39 µM (active) in [6]; 32.4 µM (active) in [8]; 52.8 µM (active) in [9]. In addition, the AC50 in test [7] was 4.16 µM (active).
With `CC[n+]1c(/C=C/Nc2ccccc2)oc2ccc(OC)cc21`, in test [10], the EC50 is 3.35 µM (active). For the same compound, the IC50 in test [5] was > 100 µM (inactive); in test [8], 23.2 µM (active); in test [9], 55.6 µM (active).
For the compound `COc1ccccc1-c1cc2nc(-c3ccccc3)cc(N3CCN(C(=O)c4ccccc4)CC3)n2n1`, the EC50 in [11] is 2.87 µM (active); in test [12], 0.72 µM (active).
Consider `Cc1ccc(NCC(C)C(=O)O)cc1C` (stereo unspecified), for which the EC50 in test [13] is > 100 µM (inactive).
